Reference: ChEMBL document CHEMBL1125017, “Potent anticonflict activity and lessening of memory impairment with a series of novel [1]benzothieno[2,3-c]pyridines and 1,2,3,4-tetrahydro[1]benzothieno[2,3-c]pyridines” (J Med Chem, 1990)

What was measured:
[1] = biological target: GABA-A receptor; anion channel; test: Inhibition of [3H]flunitrazepam binding to GABA-A Benzodiazepine receptor of Wistar rat cerebral cortex; assay type: tissue-based
[2] = system: Mus musculus; test: No. rats showing anticonflict activity after oral administration of a dose of 20 mg/kg; Number of mice which prolonged latency more than twice the duration of mice administered Scopolamine singly/number of mice tested 4/8; assay type: functional
[3] = system: Rattus norvegicus; test: No. rats showing anticonflict activity after oral administration of a dose of 40 mg/kg; Number of rats which received shocks more than twice vs shocks received in control rats to that of number of rats tested 8/10; assay type: functional
[4] = system: Mus musculus; test: Latency step was determined after oral administration of a dose of 5 mg/kg in 8 mice; assay type: functional
[5] = system: Rattus norvegicus; test: No. rats showing anticonflict activity after oral administration of a dose of 5 mg/kg; Number of rats which received shocks more than twice vs shocks received in control rats to that of number of rats tested 3/10; assay type: functional
[6] = system: Rattus norvegicus; test: Anticonflict activity measured in male wistar rats; number of shocks received in 5 min at an intravenous dose of 10 mg/kg.; assay type: functional
[7] = system: Rattus norvegicus; test: No of shocks of 5 min was reported after oral administration of a dose of 5 mg/kg in 10 rats; assay type: functional
[8] = system: Mus musculus; test: Number of mice showing anti-amnesic activity after oral administration of a dose of 5 mg/kg; Number of mice which prolonged latency more than twice the duration of mice administered Scopolamine singly/number of mice tested 2/8; assay type: functional
[9] = system: Rattus norvegicus; test: No of shocks of 5 min was reported after oral administration of a dose of 40 mg/kg in 9 rats; assay type: functional
[10] = system: Mus musculus; test: […] activity after oral administration of a dose of 40 mg/kg; Number of mice which prolonged latency more than twice the duration of mice administered Scopolamine singly/number of mice tested 6/8; assay type: functional
[11] = system: Rattus norvegicus; test: No. rats showing anticonflict activity after oral administration of a dose of 20 mg/kg; Number of rats which received shocks more than twice vs shocks received in control rats to that of number of rats tested 6/10; assay type: functional
[12] = system: Mus musculus; test: Latency step was determined after oral administration of a dose of 20 mg/kg in 8 mice; assay type: functional
[13] = system: Mus musculus; test: Latency step was determined after oral administration of a dose of 40 mg/kg in 8 mice; assay type: functional
[14] = system: Rattus norvegicus; test: No of shocks of 5 min was reported after oral administration of a dose of 20 mg/kg in 10 rats; assay type: functional
[15] = system: Mus musculus; test: Lessening of memory impairment measured in mice; time of latency in seconds at an intravenous dose of 10 mg/kg.; assay type: functional
[16] = system: Mus musculus; test: […] activity after oral administration of a dose of 5 mg/kg; Number of mice which prolonged latency more than twice the duration of mice administered Scopolamine singly/number of mice tested 1/8; assay type: functional
[17] = system: Mus musculus; test: No. rats showing anticonflict activity after oral administration of a dose of 20 mg/kg; Number of mice which prolonged latency more than twice the duration of mice administered Scopolamine singly/number of mice tested 3/8; assay type: functional
[18] = system: Rattus norvegicus; test: No. rats showing anticonflict activity after oral administration of a dose of 40 mg/kg; Number of rats which received shocks more than twice vs shocks received in control rats to that of number of rats tested 6/9; assay type: functional
[19] = biological target: T1, 5-hydroxytryptamine receptor 1A (Rattus norvegicus, UniProt P19327); test: Binding affinity towards 5-hydroxytryptamine 1A receptor in rat brain; assay type: tissue-based
T1 sequence (P19327 whole entry): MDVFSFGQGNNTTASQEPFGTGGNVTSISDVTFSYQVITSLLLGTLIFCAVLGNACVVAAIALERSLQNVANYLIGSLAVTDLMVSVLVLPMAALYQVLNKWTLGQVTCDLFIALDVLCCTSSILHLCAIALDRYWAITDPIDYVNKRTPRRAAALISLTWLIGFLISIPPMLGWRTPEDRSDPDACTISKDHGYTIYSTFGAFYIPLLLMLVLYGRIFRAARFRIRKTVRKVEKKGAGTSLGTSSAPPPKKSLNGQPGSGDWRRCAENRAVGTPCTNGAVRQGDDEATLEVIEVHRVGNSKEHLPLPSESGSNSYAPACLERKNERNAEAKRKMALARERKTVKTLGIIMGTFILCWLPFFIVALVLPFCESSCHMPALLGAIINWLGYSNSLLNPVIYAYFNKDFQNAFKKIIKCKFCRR

[20] = system: Rattus norvegicus; test: No. rats showing anticonflict activity after oral administration of a dose of 20 mg/kg; Number of rats which received shocks more than twice vs shocks received in control rats to that of number of rats tested 5/10; assay type: functional
[21] = species on record: Mus musculus; test: Lessening of memory impairment by the compound was measured in mice.; assay type: functional
[22] = system: Mus musculus; test: No. of mice showing anti-amnesic activity after oral administration of a dose of 20 mg/kg; Number of mice which prolonged latency more than twice the duration of mice administered Scopolamine singly/number of mice tested 4/8; assay type: functional
[23] = system: Rattus norvegicus; test: No of shocks of 5 min was reported after oral administration of a dose of 40 mg/kg; assay type: functional
[24] = system: Rattus norvegicus; test: No. rats showing anticonflict activity after oral administration of a dose of 20 mg/kg; Number of rats which received shocks more than twice vs shocks received in control rats to that of number of rats tested 2/8; assay type: functional
[25] = system: Mus musculus; test: No. of mice showing anti-amnesic activity after oral administration of a dose of 5 mg/kg; Number of mice which prolonged latency more than twice the duration of mice administered Scopolamine singly/number of mice tested 4/8; assay type: functional
[26] = system: Mus musculus; test: Latency step was determined after oral administration of a dose of 20 mg/kg in 8 mice.; assay type: functional
[27] = system: Rattus norvegicus; test: No of shocks of 5 min was reported after oral administration of a dose of 20 mg/kg; assay type: functional
[28] = system: Mus musculus; test: Latency step was determined after oral administration of a dose of 40 mg/kg in 8 mice.; assay type: functional
[29] = system: Rattus norvegicus; test: No. rats showing anticonflict activity after oral administration of a dose of 40 mg/kg; Number of rats which received shocks more than twice vs shocks received in control rats to that of number of rats tested 4/7; assay type: functional
[30] = system: Mus musculus; test: No. of mice showing anti-amnesic activity after oral administration of a dose of 40 mg/kg; Number of mice which prolonged latency more than twice the duration of mice administered Scopolamine singly/number of mice tested 6/8; assay type: functional
[31] = system: Rattus norvegicus; test: No of shocks of 5 min was reported after oral administration of a dose of 5 mg/kg in 43 rats; 25/43; assay type: functional
[32] = system: Rattus norvegicus; test: Anticonflict activity was measured in male wistar rats; number of shocks received in 5 min at a dose of 3 mg/kg ip; assay type: functional; details: route intraperitoneal
[33] = system: Mus musculus; test: […] activity after oral administration of a dose of 5 mg/kg in mice; Number of mice which prolonged latency more than twice the duration of mice administered Scopolamine singly/number of mice tested 1/10; assay type: functional
[34] = system: Rattus norvegicus; test: No. rats showing anticonflict activity after oral administration of a dose of 10 mg/kg; Number of rats which received shocks more than twice vs shocks received in control rats to that of number of rats tested 25/43; assay type: functional

| Structure (SMILES) | Activity [6] | Activity [15] | further results |
| --- | --- | --- | --- |
| CCOC(=O)C1Cc2c(sc3ccccc23)CN1 (centres undefined) | 27.2 | 90.5 | IC50 [1]: 1500 µM; Antiamnesic activity [2]: 4; Anticonflict activity [3]: 8; Activity [4]: 68.8; Anticonflict activity [5]: 3; No. of shocks [7]: 16.1; Antiamnesic activity [8]: 2; No. of shocks [9]: 30.2; Antiamnesic activity [10]: 6; Anticonflict activity [11]: 6; Activity [12]: 110.1; Activity [13]: 129.9; No. of shocks [14]: 29.3 |
| CCNC(=O)c1cc2c(cn1)sc1ccccc12 | 8.5 | 36.3 |  |
| O=C(O)c1cc2c(cn1)sc1ccccc12 | 4 | 55.8 |  |
| O=C(c1cc2c(cn1)sc1ccccc12)N1CCCCC1 | 5 | 60.2 |  |
| COC(=O)c1cc2c(cn1)sc1ccccc12 | 8.5 | 31.6 |  |
| CCOC(=O)C1Cc2c(sc3ccccc23)CN1C (centres undefined) | 22 | 32.9 |  |
| CCCOC(=O)c1cc2c(cn1)sc1ccccc12 | 9.6 | 22.1 | IC50 [1]: 1530 µM |
| CCCCCCNC(=O)c1cc2c(cn1)sc1ccccc12 | 10.5 | 62.3 |  |
| CNC(=O)c1cc2c(cn1)sc1ccccc12 | 8.4 | 28.6 |  |
| CCCNC(=O)c1cc2c(cn1)sc1ccccc12 | 17.3 | 42 |  |
| NNC(=O)c1cc2c(cn1)sc1ccccc12 | 11.2 | 20.4 |  |
| O=C(c1cc2c(cn1)sc1ccccc12)N1CCOCC1 | 8.2 | 52.9 |  |
| O=C(NC1CCCCC1)C1Cc2c(sc3ccccc23)CN1 (centres undefined) | 36.9 | 120.4 | IC50 [1]: 1600 µM; Antiamnesic activity [16]: 1; Antiamnesic activity [17]: 3; Activity [4]: 67.5; Anticonflict activity [5]: 3; No. of shocks [7]: 15.5; No. of shocks [9]: 26.9; Activity [12]: 85; Anticonflict activity [18]: 6; Ki [19]: 0.28 µM; No. of shocks [14]: 28.1; Anticonflict activity [20]: 5 |
| CCCOC(=O)C1Cc2c(sc3ccccc23)CN1 (centres undefined) | 14.5 | 57.2 |  |
| NC(=O)c1cc2c(cn1)sc1ccccc12 | 17 | 24.7 | IC50 [1]: 1560 µM |
| CCOC(=O)C1Cc2c(sc3ccccc23)CN1C(=O)c1ccccc1Cl (centres undefined) | 2.5 | 28.1 |  |
| CCOC(=O)C1Cc2c(sc3ccccc23)CN1C(=O)c1ccccc1 (centres undefined) | 6.3 | 35.1 |  |
| COC(=O)CCCNC(=O)c1cc2c(cn1)sc1ccccc12 | 9.9 |  |  |

| Structure (SMILES) | Activity [6] | Activity [15] | further results |
| --- | --- | --- | --- |
| CCOC(=O)C1Cc2c(sc3ccccc23)CN1C(C)=O (centres undefined) |  | 37.3 |  |
| CC1CCCC(C)N1C(=O)c1cc2c(cn1)sc1ccccc12 (centres undefined) | 4.5 |  |  |
| COC(=O)C1Cc2c(sc3ccccc23)CN1 (centres undefined) | 17.9 |  | Activity [21]: 64.5 |
| CC(=O)N1CCCN(C(=O)c2cc3c(cn2)sc2ccccc23)CC1.Cl | 22.2 | 55 |  |
| Cl.O=C(c1cc2c(cn1)sc1ccccc12)N1CCCNCC1 | 21.8 | 38.9 |  |
| Cl.NCCCNC(=O)c1cc2c(cn1)sc1ccccc12 | 15.2 | 37.7 |  |
| Cl.O=C(c1cc2c(cn1)sc1ccccc12)N1CCNCC1 | 17.8 | 40.7 |  |
| Cl.NCCCC(=O)N1CCCN(C(=O)c2cc3c(cn2)sc2ccccc23)CC1 |  | 51.9 |  |
| CN1CCN(C(=O)c2cc3c(cn2)sc2ccccc23)CC1.Cl | 3.3 | 44.2 |  |
| CN(C)CCNC(=O)c1cc2c(cn1)sc1ccccc12.Cl | 9.6 | 64.5 |  |
| Cl.O=C(c1cc2c(cn1)sc1ccccc12)N1CCCN(Cc2ccc(Cl)cc2)CC1 | 12.8 | 34.7 |  |
| Cl.NCCNC(=O)c1cc2c(cn1)sc1ccccc12 | 37.2 | 103.9 | Antiamnesic activity [22]: 4; No. of shocks [23]: 22; Activity [4]: 65.5; Anticonflict activity [24]: 2; Antiamnesic activity [25]: 4; Activity [26]: 106.7; No. of shocks [27]: 9.3; Activity [28]: 125.1; Anticonflict activity [29]: 4; Antiamnesic activity [30]: 6 |
| CN1CCCN(C(=O)c2cc3c(cn2)sc2ccccc23)CC1.Cl | 3.5 | 40.3 |  |
| CC1CN(C(=O)c2cc3c(cn2)sc2ccccc23)CCN1.Cl (centres undefined) | 7.6 | 40.3 |  |
| Cl.NCC(=O)N1CCCN(C(=O)c2cc3c(cn2)sc2ccccc23)CC1 | 14.1 |  |  |
| CCOC(=O)c1cc2c(cn1)sc1ccccc12 | 10.7 | 11.3 |  |
| CN1C(=O)CN=C(c2ccccc2)c2cc(Cl)ccc21 [DIAZEPAM] |  |  | No. of shocks [31]: 22.7; Activity [32]: 39.4; Antiamnesic activity [33]: 1; Anticonflict activity [34]: 25 |
